Data set [1] has as its target T1, Peroxisome proliferator-activated receptor gamma (Homo sapiens) (UniProt P37231).
T1 sequence (whole entry): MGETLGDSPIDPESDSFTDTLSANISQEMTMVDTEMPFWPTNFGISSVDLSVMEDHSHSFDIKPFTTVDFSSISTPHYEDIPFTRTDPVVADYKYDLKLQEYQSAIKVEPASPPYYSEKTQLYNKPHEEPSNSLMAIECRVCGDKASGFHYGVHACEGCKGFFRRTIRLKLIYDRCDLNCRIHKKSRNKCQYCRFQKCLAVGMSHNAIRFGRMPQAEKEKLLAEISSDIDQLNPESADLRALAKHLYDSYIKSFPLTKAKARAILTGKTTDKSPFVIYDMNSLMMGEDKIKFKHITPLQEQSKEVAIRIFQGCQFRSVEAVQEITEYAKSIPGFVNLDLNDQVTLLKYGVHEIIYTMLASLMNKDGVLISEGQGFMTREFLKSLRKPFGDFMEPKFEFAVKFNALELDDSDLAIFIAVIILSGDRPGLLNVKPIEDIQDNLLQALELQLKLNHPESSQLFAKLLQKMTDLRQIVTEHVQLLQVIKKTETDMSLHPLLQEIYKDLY
Put plainly: Modulation of human PPARgamma-LBD expressed in african green monkey COS7 cells co-transfected with Gal4 assessed as activation of transactivation activity by luciferase assay relative to pioglitazone. In kind it is cell-based. The conditions noted are these: COS-7.

The target of data set [2] is T2, Peroxisome proliferator-activated receptor gamma (Homo sapiens, UniProt P37231).
T2 sequence (P37231 whole entry): T1 sequence (whole entry)
Put plainly: Modulation of human PPARgamma-LBD expressed in african green monkey COS7 cells co-transfected with Gal4 assessed as activation of transactivation activity by luciferase assay. In kind it is cell-based, COS-7.

The target in data set [3] is T3, Prostaglandin G/H synthase 1 (Ovis aries) (UniProt P05979).
T3 sequence (whole entry): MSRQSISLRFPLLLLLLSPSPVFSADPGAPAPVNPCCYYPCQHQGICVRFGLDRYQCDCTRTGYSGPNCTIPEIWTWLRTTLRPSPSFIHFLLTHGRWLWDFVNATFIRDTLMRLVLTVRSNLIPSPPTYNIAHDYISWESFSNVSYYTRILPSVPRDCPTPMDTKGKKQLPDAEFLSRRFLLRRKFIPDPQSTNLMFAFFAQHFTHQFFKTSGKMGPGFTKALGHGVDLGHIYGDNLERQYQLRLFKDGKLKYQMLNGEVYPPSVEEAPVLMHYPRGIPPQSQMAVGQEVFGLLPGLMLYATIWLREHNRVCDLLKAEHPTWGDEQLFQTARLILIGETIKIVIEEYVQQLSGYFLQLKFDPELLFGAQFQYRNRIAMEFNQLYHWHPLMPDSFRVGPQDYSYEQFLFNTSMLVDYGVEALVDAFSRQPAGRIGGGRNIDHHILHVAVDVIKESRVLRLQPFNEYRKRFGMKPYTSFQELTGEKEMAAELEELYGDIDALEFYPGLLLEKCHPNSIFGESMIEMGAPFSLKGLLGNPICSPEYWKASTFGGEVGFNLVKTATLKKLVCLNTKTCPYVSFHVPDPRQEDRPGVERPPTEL
Put plainly: Inhibition of ovine COX-1 assessed as residual activity by measuring formation of 12-HHT from arachidonic acid at 10 uM by HPLC analysis.

Data set [4] deals with CHO. The experiment in a line: Inhibition of gamma-secretase-mediated notch signaling expressed in CHO cells transfected with Gal4-DNA-binding/VP16 transactivation domain assessed as reduction of reporter activity up to 30 uM by luciferase assay. Type of data set: cell-based.
The target in data set [5] is T4, Prostaglandin G/H synthase 2 (Homo sapiens) (UniProt P35354).
T4 sequence (whole entry): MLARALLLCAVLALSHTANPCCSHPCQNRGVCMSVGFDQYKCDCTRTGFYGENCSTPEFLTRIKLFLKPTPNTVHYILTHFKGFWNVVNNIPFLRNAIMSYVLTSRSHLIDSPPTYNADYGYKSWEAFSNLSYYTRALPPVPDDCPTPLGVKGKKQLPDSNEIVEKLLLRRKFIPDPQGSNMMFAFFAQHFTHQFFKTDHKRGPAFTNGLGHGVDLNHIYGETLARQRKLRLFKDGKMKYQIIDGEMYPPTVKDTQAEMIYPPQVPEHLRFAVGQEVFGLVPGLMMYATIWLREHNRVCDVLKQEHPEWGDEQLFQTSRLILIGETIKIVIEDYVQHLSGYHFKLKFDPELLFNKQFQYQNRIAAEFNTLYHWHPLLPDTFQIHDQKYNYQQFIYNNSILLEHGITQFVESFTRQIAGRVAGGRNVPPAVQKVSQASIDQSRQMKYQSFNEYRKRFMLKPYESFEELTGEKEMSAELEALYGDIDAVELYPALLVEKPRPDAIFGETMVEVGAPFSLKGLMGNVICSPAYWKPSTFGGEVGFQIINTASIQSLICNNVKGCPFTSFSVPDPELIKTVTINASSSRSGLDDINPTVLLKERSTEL
The experiment in a line: Inhibition of human recombinant COX-2 assessed as residual activity by measuring formation of 12-HHT from arachidonic acid at 10 uM by HPLC analysis.

A short description of data set [6]: Modulation of gamma-secretase expressed in CHO cells co-expressing human APP and wild type human presenilin-1 assessed as inhibition of amyloid beta42 production by ELISA. In kind it is cell-based.
Data set [7] has as its target T5, Peroxisome proliferator-activated receptor alpha (Homo sapiens) (UniProt Q07869).
T5 sequence (whole entry): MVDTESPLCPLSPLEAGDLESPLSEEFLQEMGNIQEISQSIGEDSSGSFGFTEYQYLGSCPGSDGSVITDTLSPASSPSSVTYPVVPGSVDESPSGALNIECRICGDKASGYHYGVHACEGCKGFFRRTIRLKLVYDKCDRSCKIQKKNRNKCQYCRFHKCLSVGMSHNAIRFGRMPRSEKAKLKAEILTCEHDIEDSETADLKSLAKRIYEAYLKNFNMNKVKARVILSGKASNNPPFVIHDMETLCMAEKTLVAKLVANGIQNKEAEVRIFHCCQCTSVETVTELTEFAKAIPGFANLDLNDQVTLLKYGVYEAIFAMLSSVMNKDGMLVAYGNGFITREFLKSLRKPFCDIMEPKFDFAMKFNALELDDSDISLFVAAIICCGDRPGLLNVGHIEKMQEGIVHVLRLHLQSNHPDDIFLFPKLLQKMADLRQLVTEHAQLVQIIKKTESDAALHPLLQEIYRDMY
The experiment in a line: Modulation of human PPARalpha-LBD expressed in african green monkey COS7 cells co-transfected with Gal4 assessed as activation of transactivation activity at 10 uM by luciferase assay. The conditions noted are these: COS-7. In kind it is cell-based.

Data set [8] can be described thus: Modulation of gamma-secretase expressed in CHO cells co-expressing human APP and wild type human presenilin-1 assessed as increase of amyloid beta38 production by ELISA. In kind it is cell-based.
Data set [9] is described as follows: Selectivity ratio of inhibition of gamma-secretase-mediated notch signaling to modulation of gamma-secretase.
Data set [10] deals with T6, Peroxisome proliferator-activated receptor delta (Homo sapiens) (UniProt Q03181).
T6 sequence (whole entry): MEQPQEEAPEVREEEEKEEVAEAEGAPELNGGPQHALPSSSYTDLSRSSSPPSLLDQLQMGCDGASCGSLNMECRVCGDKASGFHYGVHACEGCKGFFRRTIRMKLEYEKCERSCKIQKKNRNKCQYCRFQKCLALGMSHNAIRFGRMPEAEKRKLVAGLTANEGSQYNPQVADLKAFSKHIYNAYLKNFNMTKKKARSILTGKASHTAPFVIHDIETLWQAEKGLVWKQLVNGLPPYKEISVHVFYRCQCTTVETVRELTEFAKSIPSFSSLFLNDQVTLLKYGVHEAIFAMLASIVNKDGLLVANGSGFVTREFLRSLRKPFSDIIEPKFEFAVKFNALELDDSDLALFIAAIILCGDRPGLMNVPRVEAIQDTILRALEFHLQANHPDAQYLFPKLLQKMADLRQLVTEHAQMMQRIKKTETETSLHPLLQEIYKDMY
The experiment in a line: Modulation of human PPARdelta-LBD expressed in african green monkey COS7 cells co-transfected with Gal4 assessed as activation of transactivation activity at 10 uM by luciferase assay. The conditions noted are these: COS-7. Type of data set: cell-based.

Data set [11] deals with CHO. The experiment in a line: Cytotoxicity against CHO cells expressing human APP and wild type human presenilin-1 assessed as reduction of cell viability up to 40 uM after 24 hrs by Alamar blue assay. Conditions: chinese hamster. Type of data set: cell-based, Cricetulus griseus.
The target in data set [12] is T7, Prostaglandin G/H synthase 1 (Ovis aries, UniProt P05979).
T7 sequence (P05979 whole entry): T3 sequence (whole entry)
Description: Inhibition of ovine COX-1 assessed as residual activity by measuring formation of 12-HHT from arachidonic acid by HPLC analysis

Data set [13] deals with T1, Peroxisome proliferator-activated receptor gamma (Homo sapiens). The experiment in a line: Modulation of human PPARgamma-LBD expressed in african green monkey COS7 cells co-transfected with Gal4 assessed as activation of transactivation activity at 10 uM by luciferase assay. The conditions noted are these: COS-7. In kind it is cell-based.
A short description of data set [14]: Modulation of gamma-secretase expressed in CHO cells co-expressing human APP and wild type human presenilin-1 assessed as reduction of amyloid beta38 production by ELISA. In general terms: In an ELISA, binding on a coated surface is turned into a signal by an enzyme label.

The source made the active and inactive calls. The calls are words filed in the database; no cut-off is given here.

From ChEMBL document CHEMBL1817621, “SAR studies of acidic dual γ-secretase/PPARγ modulators” (Bioorg Med Chem, 2011) come the findings set out here.

Regarding `CCCC/C(=C\c1cc(OCCc2ccc(C(F)(F)F)cc2)ccc1OCCc1ccc(C(F)(F)F)cc1)C(=O)O`, the Emax in data set [1] is 86%. Besides, the concentration for a half-maximal effect (EC50) (usually the concentration that produces a half-maximal response) amounted to 7200 nM in data set [2] and 1600 nM in [8]. Besides, the figures for the Activity (in data set [3]; in [5]; in the data set on CHO [11]) were 81%, 102% and “Non-toxic”, respectively. The inhibition result in the data set on CHO [4] was “inactive”. Besides, the IC50 (as a rule, the concentration that inhibits the measured activity by half) in data set [6] worked out at 2400 nM. For the same compound, the outcome in [7] and in data set [10] was inactive. The Ratio in data set [9] turned out to be 8.
In [12], `CCCCC(Sc1nc(OCCc2ccccc2)cc(OCCc2ccccc2)n1)C(=O)O` (stereo not given) showed an IC50 of 16700 nM.
On to `CCCC/C(=C\c1cc(OCCC2CCCCC2)ccc1OCCC1CCCCC1)C(=O)O`, for which the Activity in data set [3] was 76.4%; in data set [5], 123%; in [13], 75%; in the data set with CHO [11], “Non-toxic”. In addition, in the data set with CHO [4], the inhibition result is “inactive”. In addition, the IC50 in data set [6] came to 3900 nM. In addition, the result in data set [7] and in data set [10] was inactive. The EC50 in [8] was determined as 3100 nM. In data set [9], the Ratio came to 8.
Take `CCCC/C(=C\c1cc(OCc2ccc(C(F)(F)F)cc2)ccc1OCc1ccc(C(F)(F)F)cc1)C(=O)O`: the Activity in data set [3] is 82.6%; in data set [5] it was 102%; in data set [13] it was 28%; with CHO [11] it was “Non-toxic”. Also, the IC50 in data set [6] stood at 1200 nM. Also, the result in data set [7] and in data set [10] was inactive. Besides, in [8], the EC50 turned out to be 1100 nM.
As for `CCCCC(Cc1ccc(OCCc2ccccc2)cc1OCCc1ccccc1)C(=O)O` (stereo not given), the Activity was 99.1% in data set [3], 110% in data set [5] and “Non-toxic” with CHO [11]. Moreover, in [14], the half-maximal inhibitory concentration (IC50) came out at 5000 nM. Moreover, the outcome in data set [13], in data set [7] and in data set [10] was inactive.
`CCCC/C(=C\c1cc(OCCC2CCCCC2)ccc1OCc1ccc(C(F)(F)F)cc1)C(=O)O`: the Activity is 92.3% in [3], 106% in data set [5], 27% in [13] and “Non-toxic” with CHO [11]. In data set [6], the IC50 is 2700 nM. Further, the outcome in data set [7] and in data set [10] was inactive. Also, the EC50 in [8] was 2500 nM.
